Test [1] has as its target T1, Cholinesterase (Equus caballus, UniProt P81908).
Description: Inhibition of equine serum BuChE by Ellman's method
For the next test, the target named is Acetylcholinesterase (Electrophorus electricus, UniProt O42275). The test can be described thus: Inhibition of electric eel AChE by Ellman's method. In general terms: In Ellman's method for cholinesterases, released thiocholine reacts with DTNB.
Test [2] is described as follows: Antioxidant activity assessed as superoxide anion radical scavenging activity by measuring reduction in anode current by cyclic voltammetry. It is filed as functional.
Test [3] in a line: Antioxidant activity assessed as superoxide anion radical scavenging activity by measuring reduction in cathode current by cyclic voltammetry. It is filed as functional.
The target of test [4] is Amyloid-beta precursor protein (Homo sapiens) (UniProt P05067). Briefly: Inhibition of amyloid beta (1 to 42) (unknown origin) self aggregation at 25 uM by Thioflavin T based fluorometric assay.
Chain of Amyloid-beta precursor protein (Homo sapiens) (P05067 whole entry): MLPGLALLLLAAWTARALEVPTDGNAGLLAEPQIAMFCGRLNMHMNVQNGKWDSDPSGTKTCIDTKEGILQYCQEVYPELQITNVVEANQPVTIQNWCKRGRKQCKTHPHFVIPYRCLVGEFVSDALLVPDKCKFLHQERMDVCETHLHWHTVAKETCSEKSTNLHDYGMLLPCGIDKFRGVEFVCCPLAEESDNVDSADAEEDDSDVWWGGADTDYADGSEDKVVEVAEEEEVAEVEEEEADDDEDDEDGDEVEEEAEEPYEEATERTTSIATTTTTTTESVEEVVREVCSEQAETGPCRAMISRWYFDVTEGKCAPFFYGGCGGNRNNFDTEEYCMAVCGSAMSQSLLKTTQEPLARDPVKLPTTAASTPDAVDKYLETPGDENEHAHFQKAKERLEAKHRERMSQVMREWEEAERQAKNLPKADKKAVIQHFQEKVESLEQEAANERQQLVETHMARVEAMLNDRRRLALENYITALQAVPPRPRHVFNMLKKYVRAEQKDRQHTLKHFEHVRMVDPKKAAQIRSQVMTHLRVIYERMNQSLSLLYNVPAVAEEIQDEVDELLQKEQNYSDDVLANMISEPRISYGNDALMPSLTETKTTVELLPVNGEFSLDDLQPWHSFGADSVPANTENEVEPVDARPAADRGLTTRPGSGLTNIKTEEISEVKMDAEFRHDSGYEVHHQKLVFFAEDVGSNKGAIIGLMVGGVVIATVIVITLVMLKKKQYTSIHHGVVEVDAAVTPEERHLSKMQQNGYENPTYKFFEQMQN
Test [5] in a line: Metal chelating activity assessed as Cu2+-complex formation by measuring inhibition of Cu2+ induced amyloid beta (1 to 42) aggregation at 25 uM by Thioflavin T based fluorometric assay.
Test [6] can be described thus: Metal chelating activity assessed as compound-Zn2+ complex formation by measuring new peak formation by fluorescence emission spectral analysis.
The nature of test [7]: Metal chelating activity assessed as compound-Fe3+ complex formation by measuring decrease in fluorescence intensity by fluorescence emission spectral analysis.
A short description of test [8]: Metal chelating activity assessed as compound-Cu2+ complex formation by UV spectrophotometric analysis.
Test [9] can be described thus: Metal chelating activity assessed as compound-Cu2+ complex formation by fluorescence emission spectral analysis.
A short description of test [10]: Metal chelating activity assessed as compound-Zn2+ complex formation by UV spectrophotometric analysis.
The nature of test [11]: Metal chelating activity assessed as compound-Fe3+ complex formation by UV spectrophotometric analysis.
Test [12] deals with T1, Cholinesterase. Briefly: (§1) Mixed type inhibition of equine serum BuChE by double reciprocal analysis. It is filed as cell-free.
Test [13] concerns the target Cholinesterase (Equus caballus) (UniProt P81908). The description is as §1. In kind it is cell-free.
Test [14] has the same target. The test can be described thus: Mixed type inhibition of equine serum BuChE assessed as decrease in Vmax with increase in Km by Lineweaver-Burk plot analysis. It is filed as cell-free.

The record followed here is ChEMBL document CHEMBL4825736, “Design, synthesis and biological evaluation of naringenin carbamate derivatives as potential multifunctional agents for the treatment of Alzheimer's disease” (Bioorg Med Chem Lett, 2021).

Broadly, the IC50 is the midpoint of a concentration-inhibition curve. The low end stands for higher potency, the high end for lower potency. For orientation: inhibition means the relative decrease from the control value, in per cent. Broadly, the Ki is the dissociation constant of the complex between target and ligand, obtained from inhibition or displacement.

Calls of active or inactive are those of the source. No cut-off for these calls is given here.

T1 sequence (P81908 whole entry): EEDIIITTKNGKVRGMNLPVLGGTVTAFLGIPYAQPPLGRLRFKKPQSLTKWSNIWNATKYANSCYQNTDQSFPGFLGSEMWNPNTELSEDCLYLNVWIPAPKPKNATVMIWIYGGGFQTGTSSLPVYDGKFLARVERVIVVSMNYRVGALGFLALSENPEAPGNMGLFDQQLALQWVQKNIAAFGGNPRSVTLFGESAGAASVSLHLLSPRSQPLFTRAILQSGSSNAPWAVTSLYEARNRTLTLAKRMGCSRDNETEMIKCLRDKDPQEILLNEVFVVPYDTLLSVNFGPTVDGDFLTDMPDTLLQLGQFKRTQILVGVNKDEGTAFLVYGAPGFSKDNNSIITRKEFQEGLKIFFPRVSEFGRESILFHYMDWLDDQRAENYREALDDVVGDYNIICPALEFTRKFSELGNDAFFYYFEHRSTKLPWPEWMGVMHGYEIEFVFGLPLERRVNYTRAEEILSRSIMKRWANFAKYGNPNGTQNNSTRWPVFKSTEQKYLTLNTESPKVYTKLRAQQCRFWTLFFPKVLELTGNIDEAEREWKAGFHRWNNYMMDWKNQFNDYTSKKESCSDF
Chain of Acetylcholinesterase (O42275 whole entry): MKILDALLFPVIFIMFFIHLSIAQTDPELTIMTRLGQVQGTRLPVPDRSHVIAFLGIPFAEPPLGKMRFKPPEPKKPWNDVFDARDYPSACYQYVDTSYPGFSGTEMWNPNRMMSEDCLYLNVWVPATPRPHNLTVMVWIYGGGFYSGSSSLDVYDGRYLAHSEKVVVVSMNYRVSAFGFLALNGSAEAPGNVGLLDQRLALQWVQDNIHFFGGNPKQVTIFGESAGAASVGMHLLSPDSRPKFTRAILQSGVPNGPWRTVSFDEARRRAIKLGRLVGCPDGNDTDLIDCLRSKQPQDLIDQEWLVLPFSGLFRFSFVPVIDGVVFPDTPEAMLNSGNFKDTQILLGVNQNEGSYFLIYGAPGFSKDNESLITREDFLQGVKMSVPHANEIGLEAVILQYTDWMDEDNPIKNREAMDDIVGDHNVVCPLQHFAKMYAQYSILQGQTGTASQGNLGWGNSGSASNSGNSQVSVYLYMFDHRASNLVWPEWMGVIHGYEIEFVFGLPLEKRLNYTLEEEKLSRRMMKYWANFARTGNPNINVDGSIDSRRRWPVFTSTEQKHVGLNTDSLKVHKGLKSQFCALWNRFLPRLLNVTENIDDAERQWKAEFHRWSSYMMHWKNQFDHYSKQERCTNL
Chain of Cholinesterase (Equus caballus) (P81908 whole entry): as the sequence (P81908 whole entry) above

Consider `O=C1C[C@@H](c2ccc(O)cc2)Oc2cc(O)cc(O)c21` [NARINGENIN], for which the IC50 against Cholinesterase [1] and against Acetylcholinesterase was over 100 µM each time. Besides, the outcome in test [2] and in test [3] was Active. Also, the figures for the inhibition in test [4] and in test [5] were 44.9% and 69.2%, respectively.

With `COc1cc(/C=C/C(=O)CC(=O)/C=C/c2ccc(O)c(OC)c2)ccc1O`, in test [5], the inhibition was determined as 73.3%.

With `O=C1CC(c2ccc(O)cc2)Oc2cc(OC(=O)N3CCOCC3)cc(O)c21` (centres undefined), the results for the IC50 on Cholinesterase [1] and on Acetylcholinesterase were 13.7 µM and 12.9 µM, respectively. For the same molecule, the result in [6], in test [7] and in test [8] was Active. Moreover, the results for the inhibition in test [4] and in [5] were 62.3% and 60.9%, respectively. In test [9], the outcome was inactive.

Consider `CN(C)C(=O)Oc1ccc(C2CC(=O)c3c(O)cc(OC(=O)N(C)C)cc3O2)cc1` (centres undefined), for which the figures for the IC50 on Cholinesterase [1] and on Acetylcholinesterase were 12.2 µM and 23.9 µM, respectively. In addition, the result in [6], in [10], in test [7], in test [11] and in [8] was Active. The inhibition in test [4] is 62.4%; in test [5], 53.5%. In addition, the result in test [9] was inactive.

At Cholinesterase [12], `O=C1CC(c2ccc(O)cc2)Oc2cc(OC(=O)N3CCCCC3)cc(O)c21` (centres undefined) yielded a Ki of 1.6 µM. The Ks in test [13] turned out to be 0.469 µM. Further, the IC50 came out at 0.094 µM on Cholinesterase [1] and 62.5 µM on Acetylcholinesterase. Further, the inhibition result in [14] is “Active”. Besides, the outcome in test [6], in test [2], in [10], in [7], in [11] and in test [3] was Active. For the same molecule, the outcome in test [8] was Active. Further, the inhibition in test [4] came to 36.1%; in test [5] it was 61.1%. In test [9], the outcome was inactive.

As to `CCN(C)C(=O)Oc1cc(O)c2c(c1)OC(c1ccc(O)cc1)CC2=O` (centres undefined), the results for the IC50 against Cholinesterase [1] and against Acetylcholinesterase were 3.42 µM and 28.3 µM, respectively. The result in [6], in test [10], in test [7] and in test [8] was Active. Also, the inhibition came out at 66.5% in test [4] and 65.5% in test [5]. Further, the outcome in test [9] was inactive.
